One block for each compound: values may come before it. Active and inactive are the calls of the source.
Legend:
Cannabinoid receptor 2 [1] = molecular target: T1, Cannabinoid receptor 2 (Homo sapiens, UniProt P34972); assay: SAR analysis of agonists of the Cannabinoid Receptor 2 using an Image-Based Assay - Set 3. [Related pubchem assays (depositor defined):AID2013, AID2026]; assay type: functional
[2] = molecular target: G-protein coupled receptor 55 (Homo sapiens, UniProt Q9Y2T6); assay: SAR Analysis of Selective Antagonists of GPR55 using an Image-Based Assay - Set 4. [Related pubchem assays (depositor defined):AID2013, AID2026]; assay type: functional;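 note: antagonism of response to 5 µM lysophosphatidylinositol agonist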
Cannabinoid receptor 1 [3] = molecular target: T2, Cannabinoid receptor 1 (Homo sapiens, UniProt P21554); assay: SAR analysis of antagonists of the Cannabinoid Receptor 1 using an Image-Based Assay - Set 4. [Related pubchem assays (depositor defined):AID2013, AID2026]; assay type: functional
[4] = molecular target: T3, G-protein coupled receptor 35 (Homo sapiens, UniProt Q9HC97); assay: SAR analysis of Antagonists of the GPR35 Receptor using an Image-Based Assay - Set 6. [Related pubchem assays (depositor defined):AID2013, AID2026]; assay type: functional
Cannabinoid receptor 1 [5] = molecular target: T2, Cannabinoid receptor 1; assay: SAR analysis of agonists of the Cannabinoid Receptor 1 using an Image-Based Assay - Set 4. [Related pubchem assays (depositor defined):AID2013, AID2026]; assay type: functional
Cannabinoid receptor 2 [6] = molecular target: T1, Cannabinoid receptor 2; assay: SAR analysis of antagonists of the Cannabinoid Receptor 2 using an Image-Based Assay - Set 3. [Related pubchem assays (depositor defined):AID2013, AID2026]; assay type: functional
[7] = molecular target: T3, G-protein coupled receptor 35; assay: SAR analysis of Agonists of the GPR35 Receptor using an Image-Based Assay - Set 4. [Related pubchem assays (depositor defined):AID2013, AID2026]; assay type: functional
Coagulation factor XII = molecular target: T4, Coagulation factor XII (Homo sapiens, UniProt P00748); assay type: functional;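 note: activated factor XIIa alpha cleaving a fluorogenic AMC peptide substrate; inhibitor potency from loss of enzyme activity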
T4 sequence (P00748 whole entry): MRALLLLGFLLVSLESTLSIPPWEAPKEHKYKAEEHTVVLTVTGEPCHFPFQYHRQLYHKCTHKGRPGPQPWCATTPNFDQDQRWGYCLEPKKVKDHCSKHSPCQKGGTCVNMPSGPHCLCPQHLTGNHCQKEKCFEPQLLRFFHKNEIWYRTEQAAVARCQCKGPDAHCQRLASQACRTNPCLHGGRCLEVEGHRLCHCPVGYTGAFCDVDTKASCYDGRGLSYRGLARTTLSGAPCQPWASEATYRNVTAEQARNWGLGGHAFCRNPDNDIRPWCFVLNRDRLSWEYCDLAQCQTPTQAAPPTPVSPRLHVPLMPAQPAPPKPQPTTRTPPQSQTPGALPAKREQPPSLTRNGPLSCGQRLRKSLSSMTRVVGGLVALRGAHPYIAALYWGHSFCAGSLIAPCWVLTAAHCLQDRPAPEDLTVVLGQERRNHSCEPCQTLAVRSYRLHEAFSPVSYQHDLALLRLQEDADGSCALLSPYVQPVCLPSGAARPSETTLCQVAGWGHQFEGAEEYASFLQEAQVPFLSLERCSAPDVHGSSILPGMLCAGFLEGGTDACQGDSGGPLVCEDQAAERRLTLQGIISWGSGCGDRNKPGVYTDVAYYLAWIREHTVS

SUMO-activating enzyme [8] = molecular target: T5, SUMO-activating enzyme (Homo sapiens, UniProt Q9UBT2); assay: blockers of SAE1/SAE2–UBC9 SUMO transfer – biochemical, HTRF, uHTS, primary screen (AID 2006); assay type: protein-complex assay
SUMO-activating enzyme [9] = molecular target: T5, SUMO-activating enzyme; assay: blockers of UBC9-mediated SUMO conjugation – biochemical, AlphaScreen, SUMOylation inhibitor project, confirmation (AID 2018); assay type: functional
Mu-type opioid receptor [10] = molecular target: T6, Mu-type opioid receptor (Homo sapiens, UniProt P35372); assay: mu opioid receptor activators, image-based, SAR follow-up (AID 2352); assay type: functional
[11] = molecular target: T7, Delta-type opioid receptor (Homo sapiens, UniProt P41143); assay: DOR agonists, SAR follow-up, image-based (AID 2370); assay type: functional
[12] = molecular target: T8, Kappa-type opioid receptor (Homo sapiens, UniProt P41145); assay: kappa opioid receptor blockers, image-based, SAR follow-up (AID 2348); assay type: functional
[13] = molecular target: T7, Delta-type opioid receptor; assay: delta opioid receptor blockers – image-based, SAR follow-up (AID 2357); assay type: functional
[14] = molecular target: T8, Kappa-type opioid receptor; assay: kappa opioid receptor activation potency – imaging, image-based, SAR follow-up (AID 2359); assay type: functional
[15] = molecular target: T8, Kappa-type opioid receptor; assay: kappa opioid receptor blockers, cell-based, luminescence, beta-arrestin, SAR follow-up (AID 2285); assay type: functional
Mu-type opioid receptor [16] = molecular target: T6, Mu-type opioid receptor; assay: mu opioid receptor blockers – image-based, SAR follow-up (AID 2420); assay type: functional;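 note: compounds added before stimulation of receptor with agonist DAMGO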
[17] = molecular target: Intestinal-type alkaline phosphatase (Homo sapiens, UniProt P09923); assay: human intestinal alkaline phosphatase activators, dose response, biochemical, luminescence, uHTS hits (AID 463120); assay type: functional
[18] = Trypanosoma cruzi growth suppression in host cells – NIH3T3 host cells, beta-gal luminescence, confirmation (AID 2044); assay type: functional, cell-based;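 note: intracellular parasites grown in NIH/3T3 mouse fibroblasts as host cells; luminescent beta-galactosidase reporter signal from transgenic T. cruzi replicating inside host cells; inhibitors lower the luminescence signal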
Paired box protein Pax-8 = Paired box protein Pax-8 (Homo sapiens, UniProt Q06710); assay: PAX8 transcriptional activity inhibition in RMG-I – RMG-I cells, luciferase, cherry-pick, dose response (AID 687027); assay type: functional, cell-based;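 note: luciferase reporter driven by Pax8 target thyroperoxidase promoter measured by SteadyGlo luminescence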
INS1 = assay: INS-1E survival protection against cytokine death – cell-based, luminescence, retest, dose response (AID 449756); assay type: functional; settings: Rattus norvegicus;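 note: cell death triggered by IL-1 beta plus TNF-alpha plus IFN-gamma mixture; protective hits raise ATP signal compared with cytokine alone wells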
Hexokinase HKDC1 = molecular target: T9, Hexokinase HKDC1 (Homo sapiens, UniProt Q2TB90); assay: activation of HKDC1 glucose phosphorylation – biochemical, W721R variant, dose response (AID 504730); assay type: functional
T9 sequence (Q2TB90 whole entry): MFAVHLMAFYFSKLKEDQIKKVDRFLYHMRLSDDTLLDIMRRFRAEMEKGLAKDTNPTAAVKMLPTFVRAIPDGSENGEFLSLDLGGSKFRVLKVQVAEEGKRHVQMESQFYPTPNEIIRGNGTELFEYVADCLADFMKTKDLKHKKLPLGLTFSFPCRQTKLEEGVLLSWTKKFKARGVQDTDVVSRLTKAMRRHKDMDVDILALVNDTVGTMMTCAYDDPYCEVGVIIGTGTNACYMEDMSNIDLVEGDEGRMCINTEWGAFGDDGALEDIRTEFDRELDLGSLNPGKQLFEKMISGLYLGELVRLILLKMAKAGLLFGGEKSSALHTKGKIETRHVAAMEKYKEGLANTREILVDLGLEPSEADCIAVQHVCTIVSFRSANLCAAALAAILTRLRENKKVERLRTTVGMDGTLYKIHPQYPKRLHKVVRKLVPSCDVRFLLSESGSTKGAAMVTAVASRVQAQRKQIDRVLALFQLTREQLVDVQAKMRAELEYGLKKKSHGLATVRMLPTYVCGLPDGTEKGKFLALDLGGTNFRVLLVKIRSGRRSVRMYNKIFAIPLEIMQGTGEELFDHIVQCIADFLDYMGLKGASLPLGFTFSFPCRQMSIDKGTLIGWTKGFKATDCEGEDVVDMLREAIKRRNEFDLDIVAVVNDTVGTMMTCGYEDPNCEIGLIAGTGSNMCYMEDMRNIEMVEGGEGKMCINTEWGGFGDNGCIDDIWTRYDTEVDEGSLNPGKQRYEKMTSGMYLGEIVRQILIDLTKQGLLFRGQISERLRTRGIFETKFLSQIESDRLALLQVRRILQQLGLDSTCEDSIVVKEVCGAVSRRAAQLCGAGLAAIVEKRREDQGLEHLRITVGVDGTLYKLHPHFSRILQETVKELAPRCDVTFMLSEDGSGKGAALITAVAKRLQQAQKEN

[19] = NIH3T3 cell viability loss – ATP luminescence, mouse fibroblasts, counter-screen, dose response (AID 2010); assay type: functional, cell-based;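 note: cells exposed to compound for about 90 hours before reading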
Hexokinase-1 = Hexokinase-1 (Homo sapiens, UniProt P19367); assay: HK1 enzyme activation by HKDC1 hits – biochemical, selectivity assay for HKDC1 activator project, dose response (AID 504762); assay type: functional
Sequence of Hexokinase-1 (P19367 whole entry): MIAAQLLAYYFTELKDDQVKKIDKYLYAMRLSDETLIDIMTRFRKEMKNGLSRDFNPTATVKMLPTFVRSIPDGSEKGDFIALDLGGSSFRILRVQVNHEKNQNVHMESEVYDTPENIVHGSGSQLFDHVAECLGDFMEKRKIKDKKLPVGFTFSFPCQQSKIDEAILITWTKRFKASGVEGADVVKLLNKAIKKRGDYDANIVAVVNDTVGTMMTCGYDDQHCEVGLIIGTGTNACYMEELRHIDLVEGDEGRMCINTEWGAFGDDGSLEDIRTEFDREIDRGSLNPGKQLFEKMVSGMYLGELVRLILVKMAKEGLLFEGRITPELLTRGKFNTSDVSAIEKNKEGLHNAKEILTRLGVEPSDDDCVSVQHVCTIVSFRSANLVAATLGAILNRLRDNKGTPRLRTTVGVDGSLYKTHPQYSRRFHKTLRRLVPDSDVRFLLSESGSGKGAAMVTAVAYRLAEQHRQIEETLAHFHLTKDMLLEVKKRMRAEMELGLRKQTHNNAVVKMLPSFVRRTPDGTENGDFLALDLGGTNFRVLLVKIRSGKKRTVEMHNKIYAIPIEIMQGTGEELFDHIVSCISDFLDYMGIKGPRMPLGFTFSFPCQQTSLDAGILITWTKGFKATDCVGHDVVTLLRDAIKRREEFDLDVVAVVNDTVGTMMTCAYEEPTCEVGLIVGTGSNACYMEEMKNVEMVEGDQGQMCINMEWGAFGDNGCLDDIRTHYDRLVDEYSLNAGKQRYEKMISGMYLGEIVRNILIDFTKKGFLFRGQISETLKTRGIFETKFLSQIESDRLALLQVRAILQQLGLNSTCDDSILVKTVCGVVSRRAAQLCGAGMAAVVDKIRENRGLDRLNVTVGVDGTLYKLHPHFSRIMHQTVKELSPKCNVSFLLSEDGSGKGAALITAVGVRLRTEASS

T3 sequence (Q9HC97 whole entry): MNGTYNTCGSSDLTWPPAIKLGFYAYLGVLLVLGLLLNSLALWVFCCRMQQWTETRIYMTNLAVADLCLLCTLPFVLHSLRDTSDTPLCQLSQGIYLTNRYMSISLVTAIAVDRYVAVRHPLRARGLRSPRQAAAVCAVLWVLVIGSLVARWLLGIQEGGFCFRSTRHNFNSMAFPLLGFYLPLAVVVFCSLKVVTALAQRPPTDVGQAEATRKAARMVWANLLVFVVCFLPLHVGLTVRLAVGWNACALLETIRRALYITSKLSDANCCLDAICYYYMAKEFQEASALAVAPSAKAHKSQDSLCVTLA
T8 sequence (P41145 whole entry): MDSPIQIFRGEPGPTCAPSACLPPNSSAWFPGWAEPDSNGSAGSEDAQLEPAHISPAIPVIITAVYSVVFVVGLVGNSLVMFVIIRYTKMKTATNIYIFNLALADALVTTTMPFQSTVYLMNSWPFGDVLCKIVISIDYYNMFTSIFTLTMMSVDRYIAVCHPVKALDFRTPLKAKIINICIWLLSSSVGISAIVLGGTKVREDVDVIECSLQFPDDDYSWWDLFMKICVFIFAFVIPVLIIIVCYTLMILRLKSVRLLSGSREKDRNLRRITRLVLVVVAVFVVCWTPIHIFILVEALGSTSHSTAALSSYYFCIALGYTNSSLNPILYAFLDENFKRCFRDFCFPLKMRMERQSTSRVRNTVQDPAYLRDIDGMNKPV
T2 sequence (P21554 whole entry): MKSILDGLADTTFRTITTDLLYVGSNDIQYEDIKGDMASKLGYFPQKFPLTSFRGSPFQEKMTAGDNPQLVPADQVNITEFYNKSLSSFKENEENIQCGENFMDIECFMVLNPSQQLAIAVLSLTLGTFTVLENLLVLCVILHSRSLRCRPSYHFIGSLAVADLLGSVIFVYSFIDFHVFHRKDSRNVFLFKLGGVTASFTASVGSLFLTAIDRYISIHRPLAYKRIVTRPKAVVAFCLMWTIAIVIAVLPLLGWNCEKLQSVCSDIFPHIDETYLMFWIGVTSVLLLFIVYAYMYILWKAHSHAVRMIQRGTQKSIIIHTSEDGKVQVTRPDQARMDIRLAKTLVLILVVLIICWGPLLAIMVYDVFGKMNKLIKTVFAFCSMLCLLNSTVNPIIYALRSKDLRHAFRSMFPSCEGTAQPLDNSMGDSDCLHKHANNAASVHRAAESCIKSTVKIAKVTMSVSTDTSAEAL
T5 sequence (Q9UBE0 whole entry): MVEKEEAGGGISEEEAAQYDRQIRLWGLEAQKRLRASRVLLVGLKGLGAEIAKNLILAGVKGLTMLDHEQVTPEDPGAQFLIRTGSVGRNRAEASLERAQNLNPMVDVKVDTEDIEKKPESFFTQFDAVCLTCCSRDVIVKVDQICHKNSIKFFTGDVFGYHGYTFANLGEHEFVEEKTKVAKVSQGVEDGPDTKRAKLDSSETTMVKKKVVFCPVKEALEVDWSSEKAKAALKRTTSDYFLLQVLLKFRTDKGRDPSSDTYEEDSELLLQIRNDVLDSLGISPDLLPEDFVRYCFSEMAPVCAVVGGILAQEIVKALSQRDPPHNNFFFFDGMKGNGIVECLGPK
T5 sequence (Q9UBT2 whole entry): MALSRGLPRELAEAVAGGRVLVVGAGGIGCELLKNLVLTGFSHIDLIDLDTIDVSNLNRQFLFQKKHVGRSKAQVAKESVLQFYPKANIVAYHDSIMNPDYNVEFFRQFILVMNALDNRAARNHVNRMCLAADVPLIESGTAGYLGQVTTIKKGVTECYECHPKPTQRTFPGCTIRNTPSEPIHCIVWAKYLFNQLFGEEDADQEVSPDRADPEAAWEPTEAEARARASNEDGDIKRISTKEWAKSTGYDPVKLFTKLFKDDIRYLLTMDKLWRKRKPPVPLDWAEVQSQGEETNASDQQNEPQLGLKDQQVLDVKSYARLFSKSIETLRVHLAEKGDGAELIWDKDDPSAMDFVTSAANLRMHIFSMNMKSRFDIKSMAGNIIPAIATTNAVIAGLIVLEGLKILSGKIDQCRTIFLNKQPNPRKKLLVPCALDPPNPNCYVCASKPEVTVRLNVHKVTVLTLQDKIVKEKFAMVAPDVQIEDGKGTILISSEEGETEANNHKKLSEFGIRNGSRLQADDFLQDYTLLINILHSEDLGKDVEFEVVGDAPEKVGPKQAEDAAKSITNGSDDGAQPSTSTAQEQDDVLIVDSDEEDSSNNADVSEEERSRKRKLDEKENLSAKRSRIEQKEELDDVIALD
T7 sequence (P41143 whole entry): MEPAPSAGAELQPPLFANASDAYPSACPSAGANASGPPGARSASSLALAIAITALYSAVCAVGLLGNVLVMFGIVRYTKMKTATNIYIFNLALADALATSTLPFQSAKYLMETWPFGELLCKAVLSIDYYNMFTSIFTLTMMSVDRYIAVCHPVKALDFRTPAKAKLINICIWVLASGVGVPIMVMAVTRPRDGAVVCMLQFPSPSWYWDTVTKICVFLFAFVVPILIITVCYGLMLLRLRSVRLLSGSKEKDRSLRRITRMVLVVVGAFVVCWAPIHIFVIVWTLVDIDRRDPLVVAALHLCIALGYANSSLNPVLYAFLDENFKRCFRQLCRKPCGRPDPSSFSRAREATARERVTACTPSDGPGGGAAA
T6 sequence (P35372 whole entry): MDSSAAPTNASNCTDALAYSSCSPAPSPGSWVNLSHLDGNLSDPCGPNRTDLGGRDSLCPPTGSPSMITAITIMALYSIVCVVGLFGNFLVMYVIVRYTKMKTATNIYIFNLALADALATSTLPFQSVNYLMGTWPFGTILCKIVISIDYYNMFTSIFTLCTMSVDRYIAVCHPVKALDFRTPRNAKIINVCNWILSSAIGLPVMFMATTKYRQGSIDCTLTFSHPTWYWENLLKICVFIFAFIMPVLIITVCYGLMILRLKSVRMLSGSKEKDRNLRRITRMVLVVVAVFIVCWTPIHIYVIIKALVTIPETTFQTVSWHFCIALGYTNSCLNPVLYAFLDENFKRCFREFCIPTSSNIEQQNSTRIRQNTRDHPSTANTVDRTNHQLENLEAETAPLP
T1 sequence (P34972 whole entry): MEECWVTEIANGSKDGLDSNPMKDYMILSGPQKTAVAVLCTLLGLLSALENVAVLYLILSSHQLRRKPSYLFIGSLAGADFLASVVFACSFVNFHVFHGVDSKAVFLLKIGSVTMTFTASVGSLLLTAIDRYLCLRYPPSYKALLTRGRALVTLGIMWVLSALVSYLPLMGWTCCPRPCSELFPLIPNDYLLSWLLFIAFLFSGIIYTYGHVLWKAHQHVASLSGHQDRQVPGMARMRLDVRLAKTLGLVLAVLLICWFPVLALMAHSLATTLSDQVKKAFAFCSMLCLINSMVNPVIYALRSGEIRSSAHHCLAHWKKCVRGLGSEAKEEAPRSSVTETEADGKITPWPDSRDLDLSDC
Sequence of G-protein coupled receptor 55 (Q9Y2T6 whole entry): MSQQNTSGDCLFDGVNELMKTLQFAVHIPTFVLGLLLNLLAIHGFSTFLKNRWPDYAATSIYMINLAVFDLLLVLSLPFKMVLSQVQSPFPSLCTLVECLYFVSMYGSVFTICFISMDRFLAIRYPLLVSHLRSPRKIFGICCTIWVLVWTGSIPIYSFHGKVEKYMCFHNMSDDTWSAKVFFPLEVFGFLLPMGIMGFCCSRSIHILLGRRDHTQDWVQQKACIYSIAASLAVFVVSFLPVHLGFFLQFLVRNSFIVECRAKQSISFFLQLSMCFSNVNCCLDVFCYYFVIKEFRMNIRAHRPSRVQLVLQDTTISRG
Sequence of Paired box protein Pax-8 (Q06710 whole entry): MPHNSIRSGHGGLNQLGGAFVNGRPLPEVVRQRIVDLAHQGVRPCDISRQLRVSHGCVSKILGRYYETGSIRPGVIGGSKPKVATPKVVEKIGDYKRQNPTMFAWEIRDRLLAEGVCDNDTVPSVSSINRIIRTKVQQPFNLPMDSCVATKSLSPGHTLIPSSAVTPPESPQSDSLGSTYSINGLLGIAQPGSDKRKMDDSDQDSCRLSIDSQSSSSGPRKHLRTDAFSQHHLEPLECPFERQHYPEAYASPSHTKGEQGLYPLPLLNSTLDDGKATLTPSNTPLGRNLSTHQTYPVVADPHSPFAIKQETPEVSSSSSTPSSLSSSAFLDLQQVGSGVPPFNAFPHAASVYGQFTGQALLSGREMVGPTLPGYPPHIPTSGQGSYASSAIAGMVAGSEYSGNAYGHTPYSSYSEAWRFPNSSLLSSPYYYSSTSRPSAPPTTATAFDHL

SMILES: O=C(NC(NC(=S)Nc1ccc(Cl)c(Cl)c1)C(Cl)(Cl)Cl)OCc1ccccc1 (stereo not given)
- EC50 (Mu-type opioid receptor [10]): > 32 µM (inactive)
- EC50 [11]: > 32 µM (inactive)
- IC50 [12]: 11.9 µM (inactive)
- IC50 [13]: > 32 µM (inactive)
- EC50 [14]: > 32 µM (inactive)
- IC50 [15]: > 10 µM (inactive)
- IC50 (Mu-type opioid receptor [16]): > 32 µM (inactive)

SMILES: CC(C)CCNc1ncnc2c1nnn2Cc1ccccc1Cl
- EC50 [17]: > 100 µM (inactive)

SMILES: Cc1ccc(C(C)C(=O)N2CCC(n3nc(-c4ccccc4)oc3=O)CC2)cc1 (stereo not given)
- EC50 (Cannabinoid receptor 2 [1]): > 32 µM (inactive)
- IC50 [2]: 7.6 µM (active)
- IC50 (Cannabinoid receptor 1 [3]): 3.31 µM (active)
- IC50 [4]: > 32 µM (inactive)
- EC50 (Cannabinoid receptor 1 [5]): > 32 µM (inactive)
- IC50 (Cannabinoid receptor 2 [6]): 22.9 µM (inactive)
- EC50 [7]: > 32 µM (inactive)

SMILES: COc1ccc(C2=NN=C(Nc3cc(S(=O)(=O)N(C)C)ccc3C)SC2)c(OC)c1
- EC50 [18]: 3.57 µM (active)
- AC50 (Paired box protein Pax-8): 6.77 µM (active)
- AC50 (INS1): 5.48 µM (active)
- EC50 (Hexokinase HKDC1): 18.5 µM (active)
- EC50 [19]: 5.85 µM (active)
- EC50 (Hexokinase-1): 17.4 µM (active)

Results, then the compound that gave them:

- EC50 (Cannabinoid receptor 2 [1]): 31.6 µM (inactive)
- IC50 [2]: 15.6 µM (inactive)
- IC50 (Cannabinoid receptor 1 [3]): 0.85 µM (active)
- IC50 [4]: > 32 µM (inactive)
- EC50 (Cannabinoid receptor 1 [5]): > 32 µM (inactive)
- IC50 (Cannabinoid receptor 2 [6]): 3.79 µM (active)
- EC50 [7]: 25.5 µM (inactive)
SMILES: CCOc1ccc(-c2n[nH]c(C)c2-c2ccc(OC)cc2)c(O)c1

- IC50 (Coagulation factor XII): > 50 µM (inactive)
SMILES: COc1cccc(NC(C)(C)c2nnnn2-c2c(C)cccc2C)c1

- IC50 (SUMO-activating enzyme [8]): 18 µM (active)
- IC50 (SUMO-activating enzyme [9]): 12.1 µM (active)
SMILES: O=C(/C=C/c1ccco1)NC(=S)Nc1ccc(O)c(-c2nc3ccccc3s2)c1

- IC50 (SUMO-activating enzyme [8]): 28.8 µM (active)
- IC50 (SUMO-activating enzyme [9]): 3.28 µM (active)
SMILES: Sc1nnc(-c2ccncc2)n1/N=C/c1cn(-c2ccccc2)nc1-c1ccc(Cl)cc1

- EC50 (Mu-type opioid receptor [10]): > 32 µM (inactive)
- EC50 [11]: > 32 µM (inactive)
- IC50 [12]: > 32 µM (inactive)
- IC50 [13]: > 32 µM (inactive)
- EC50 [14]: > 32 µM (inactive)
- IC50 [15]: > 10 µM (inactive)
- IC50 (Mu-type opioid receptor [16]): > 32 µM (inactive)
SMILES: CC(=O)Nc1ccc(S(=O)(=O)NCc2ccc(C(=O)NCCN(C)Cc3ccccc3)cc2)cc1
